Experimental data reported in patent US20220315558A1, “POLYMORPHS OF 1-(2-((((TRANS)-3-FLUORO-1-(3-FLUOROPYRIDIN-2-YL)CYCLOBUTYL)METHYL)AMINO)PYRIMIDIN-5-YL)-1H-PYRROLE-3-CARBOXAMIDE” (Cytokinetics, Inc., priority 2019, published 2022).

What was measured:
Format in all cases: physicochemical
[1] = Gravimetric Vapour Sorption (GVS) moisture sorption isotherm; settings: over 0-90% RH range, 25° C.
Method: GVS data were collected using a SMS DVS Intrinsic moisture sorption analyser, controlled by DVS Intrinsic Control software v1.0.0.30. The sample temperature was maintained at 25° C. by the instrument controls. The humidity was controlled by mixing streams of dry and wet nitrogen, with a total flow rate of 200 ml/min The relative humidity was measured by a calibrated Rotronic probe (dynamic range of 1.0-100% RH), located near the sample. The weight change, (mass relaxation) of the sample as a function of % RH was constantly monitored by the microbalance (accuracy ±0.005 mg).
Typically 5-20 mg of sample was placed in a tared mesh stainless steel basket under ambient conditions. The sample was loaded and unloaded at 40% RH and 25° C. (typical room conditions). A moisture sorption isotherm was performed as outlined below (2 scans giving 1 complete cycle). The standard isotherm was performed at 25° C. at 10% RH intervals over a 0-90% RH range. Data analysis was undertaken in Microsoft Excel using DVS Analysis Suite v6.0.

[2] = Storage stability for 7 days at controlled temperature/RH, checked by XRPD
Method: Ray Powder Diffraction patterns were collected on a Bruker D8 diffractometer using Cu Kα radiation (40 kV, 40 mA), θ-2θ goniometer, and divergence of V4 and receiving slits, a Ge monochromator and a Lynxeye detector. The instrument is performance checked using a certified Corundum standard (NIST 1976). The software used for data collection was Diffrac Plus XRD Commander v2.6.1 and the data were analysed and presented using Diffrac Plus EVA v13.0.0.2 or v15.0.0.0.
Samples were run under ambient conditions as flat plate specimens using powder as received. The sample was gently packed into a cavity cut into polished, zero-background (510) silicon wafer. The sample was rotated in its own plane during analysis. The details of the data collection are: • Angular range: 2 to 42° 2θ • Step size: 0.05° 2θ • Collection time: 0.5 s/step
Polymorphic Form I of 1-(2-((((trans)-3-fluoro-1-(3-fluoropyridin-2-yl)cyclobutyl)methyl)amino)pyrimidin-5-yl)-1H-pyrrole-3-carboxamide was analyzed by XRPD, DSC, TGA, and GVS. […] Chemical stability study of Form I was also performed. XRPD patterns were measured after storage of samples of Form I for 7 days at 40° C./75% RH and 25° C./97% RH.

[3] = Solubility of Form I in solvents at 50° C. (polymorph screening); parameters: key: ✓ YES; x NO
Method: Polymorphic Form I of 1-(2-((((trans)-3-fluoro-1-(3-fluoropyridin-2-yl)cyclobutyl)methyl)amino)pyrimidin-5-yl)-1H-pyrrole-3-carboxamide was weighed into vials, and the stated solvents were added, in increasing portions, at 50° C. With each addition, the vials were allowed to shake for ˜20 minutes. After the last addition, any suspensions observed were subjected to heat/cool cycles, between room temperature and 50° C., 4 hours at each condition, for 1 week. Solutions were allowed to slowly evaporate.
Aliquots were filtered by suction after 7 days maturation and analysed by XRPD (low resolution, air-dried only). Most solutions yielded solids after 9 days and these were analyzed by XRPD as well.

[4] = Competitive slurry experiments between Form I and Form II; settings: methanol, constant temperature 4 to 60° C., 12 days, XRPD
Method: (§1) A mechanical mixture of Form I and Form II was prepared. This mixture was analyzed by XRPD for reference. The mixture (ca. 25 mg) was suspended in methanol, and parallel maturation experiments were set up at a constant temperature, in the range of 4 to 60° C., for a total of 12 days. The resulting solids were filtered and analyzed by XRPD.

[5] = Competitive slurry experiments between Form I and Form IV; settings: as Example 3 (methanol, 4 to 60° C.), 12 days, XRPD
Method: as §1
Competitive slurry experiments between Form I and Form IV were conducted in a manner similar to that described in Example 3.

moisture uptake as determined by GVS [1]: less than 0.07% | changes in XRPD pattern after storage ([2]; 7 days at 25° C./97% RH): No visible changes | changes in XRPD pattern after storage ([2]; 7 days at 40° C./75% RH): No visible changes | Solubility (volumes) (✓ YES; x NO) at 50° C. ([3]; 1,4-Dioxane, 10 volumes): x | Solubility (volumes) (✓ YES; x NO) at 50° C. ([3]; 1,4-Dioxane, 25 volumes): x | Solubility (volumes) (✓ YES; x NO) at 50° C. ([3]; 1,4-Dioxane, 50 volumes): x | Solubility (volumes) (✓ YES; x NO) at 50° C. ([3]; 1-Butanol, 10 volumes): x | Solubility (volumes) (✓ YES; x NO) at 50° C. ([3]; 1-Butanol, 25 volumes): x | Solubility (volumes) (✓ YES; x NO) at 50° C. ([3]; 1-Butanol, 50 volumes): x | Solubility (volumes) (✓ YES; x NO) at 50° C. ([3]; 1-Propanol, 10 volumes): x | Solubility (volumes) (✓ YES; x NO) at 50° C. ([3]; 1-Propanol, 25 volumes): x | Solubility (volumes) (✓ YES; x NO) at 50° C. ([3]; 1-Propanol, 50 volumes): x | Solubility (volumes) (✓ YES; x NO) at 50° C. ([3]; 2-Propanol, 10 volumes): x | Solubility (volumes) (✓ YES; x NO) at 50° C. ([3]; 2-Propanol, 25 volumes): x | Solubility (volumes) (✓ YES; x NO) at 50° C. ([3]; 2-Propanol, 50 volumes): x | Solubility (volumes) (✓ YES; x NO) at 50° C. ([3]; Acetone, 10 volumes): x | Solubility (volumes) (✓ YES; x NO) at 50° C. ([3]; Acetone, 25 volumes): x | Solubility (volumes) (✓ YES; x NO) at 50° C. ([3]; Acetone, 50 volumes): x | Solubility (volumes) (✓ YES; x NO) at 50° C. ([3]; Acetonitrile, 10 volumes): ✓ | Solubility (volumes) (✓ YES; x NO) at 50° C. ([3]; Anisole, 10 volumes): x | Solubility (volumes) (✓ YES; x NO) at 50° C. ([3]; Anisole, 25 volumes): x | Solubility (volumes) (✓ YES; x NO) at 50° C. ([3]; Anisole, 50 volumes): x | Solubility (volumes) (✓ YES; x NO) at 50° C. ([3]; Butyl acetate (BuOAc), 10 volumes): x | Solubility (volumes) (✓ YES; x NO) at 50° C. ([3]; Butyl acetate (BuOAc), 25 volumes): x | Solubility (volumes) (✓ YES; x NO) at 50° C. ([3]; Butyl acetate (BuOAc), 50 volumes): x | Solubility (volumes) (✓ YES; x NO) at 50° C. ([3]; Dichloromethane (DCM), 10 volumes): x | Solubility (volumes) (✓ YES; x NO) at 50° C. ([3]; Dichloromethane (DCM), 25 volumes): x | Solubility (volumes) (✓ YES; x NO) at 50° C. ([3]; Dichloromethane (DCM), 50 volumes): x | Solubility (volumes) (✓ YES; x NO) at 50° C. ([3]; Dioxane/5% water, 10 volumes): x | Solubility (volumes) (✓ YES; x NO) at 50° C. ([3]; Dioxane/5% water, 25 volumes): x | Solubility (volumes) (✓ YES; x NO) at 50° C. ([3]; Dioxane/5% water, 50 volumes): ✓ | Solubility (volumes) (✓ YES; x NO) at 50° C. ([3]; Ethanol, 10 volumes): x | Solubility (volumes) (✓ YES; x NO) at 50° C. ([3]; Ethanol, 25 volumes): x | Solubility (volumes) (✓ YES; x NO) at 50° C. ([3]; Ethanol, 50 volumes): x | Solubility (volumes) (✓ YES; x NO) at 50° C. ([3]; Ethanol/5% water, 10 volumes): x | Solubility (volumes) (✓ YES; x NO) at 50° C. ([3]; Ethanol/5% water, 25 volumes): x | Solubility (volumes) (✓ YES; x NO) at 50° C. ([3]; Ethanol/5% water, 50 volumes): x | Solubility (volumes) (✓ YES; x NO) at 50° C. ([3]; Ethyl acetate, 10 volumes): x | Solubility (volumes) (✓ YES; x NO) at 50° C. ([3]; Ethyl acetate, 25 volumes): x | Solubility (volumes) (✓ YES; x NO) at 50° C. ([3]; Ethyl acetate, 50 volumes): x | Solubility (volumes) (✓ YES; x NO) at 50° C. ([3]; Heptane, 10 volumes): x | Solubility (volumes) (✓ YES; x NO) at 50° C. ([3]; Heptane, 25 volumes): x | Solubility (volumes) (✓ YES; x NO) at 50° C. ([3]; Heptane, 50 volumes): x | Solubility (volumes) (✓ YES; x NO) at 50° C. ([3]; Isopropanol (IPA)/5% water, 10 volumes): x | Solubility (volumes) (✓ YES; x NO) at 50° C. ([3]; Isopropanol (IPA)/5% water, 25 volumes): x | Solubility (volumes) (✓ YES; x NO) at 50° C. ([3]; Isopropanol (IPA)/5% water, 50 volumes): x | Solubility (volumes) (✓ YES; x NO) at 50° C. ([3]; Isopropyl acetate (IPAc), 10 volumes): x | Solubility (volumes) (✓ YES; x NO) at 50° C. ([3]; Isopropyl acetate (IPAc), 25 volumes): x | Solubility (volumes) (✓ YES; x NO) at 50° C. ([3]; Isopropyl acetate (IPAc), 50 volumes): x | Solubility (volumes) (✓ YES; x NO) at 50° C. ([3]; Methanol, 10 volumes): x | Solubility (volumes) (✓ YES; x NO) at 50° C. ([3]; Methanol, 25 volumes): x | Solubility (volumes) (✓ YES; x NO) at 50° C. ([3]; Methanol, 50 volumes): x | Solubility (volumes) (✓ YES; x NO) at 50° C. ([3]; Methyl ethyl ketone (MEK), 10 volumes): x | Solubility (volumes) (✓ YES; x NO) at 50° C. ([3]; Methyl ethyl ketone (MEK), 25 volumes): x | Solubility (volumes) (✓ YES; x NO) at 50° C. ([3]; Methyl ethyl ketone (MEK), 50 volumes): x | Solubility (volumes) (✓ YES; x NO) at 50° C. ([3]; Methyl isobutyl ketone (MIBK), 10 volumes): x | Solubility (volumes) (✓ YES; x NO) at 50° C. ([3]; Methyl isobutyl ketone (MIBK), 25 volumes): x | Solubility (volumes) (✓ YES; x NO) at 50° C. ([3]; Methyl isobutyl ketone (MIBK), 50 volumes): x | Solubility (volumes) (✓ YES; x NO) at 50° C. ([3]; Nitromethane, 10 volumes): x | Solubility (volumes) (✓ YES; x NO) at 50° C. ([3]; Nitromethane, 25 volumes): x | Solubility (volumes) (✓ YES; x NO) at 50° C. ([3]; Nitromethane, 50 volumes): x | Solubility (volumes) (✓ YES; x NO) at 50° C. ([3]; THF/5% water, 10 volumes): x | Solubility (volumes) (✓ YES; x NO) at 50° C. ([3]; THF/5% water, 25 volumes): Cloudy | Solubility (volumes) (✓ YES; x NO) at 50° C. ([3]; THF/5% water, 50 volumes): ✓ | Solubility (volumes) (✓ YES; x NO) at 50° C. ([3]; Tert-butyl methyl ether (TBME), 10 volumes): x | Solubility (volumes) (✓ YES; x NO) at 50° C. ([3]; Tert-butyl methyl ether (TBME), 25 volumes): x | Solubility (volumes) (✓ YES; x NO) at 50° C. ([3]; Tert-butyl methyl ether (TBME), 50 volumes): x | Solubility (volumes) (✓ YES; x NO) at 50° C. ([3]; Tetrahydrofuran (THF), 10 volumes): x | Solubility (volumes) (✓ YES; x NO) at 50° C. ([3]; Tetrahydrofuran (THF), 25 volumes): x | Solubility (volumes) (✓ YES; x NO) at 50° C. ([3]; Tetrahydrofuran (THF), 50 volumes): x | Solubility (volumes) (✓ YES; x NO) at 50° C. ([3]; Toluene, 10 volumes): x | Solubility (volumes) (✓ YES; x NO) at 50° C. ([3]; Toluene, 25 volumes): x | Solubility (volumes) (✓ YES; x NO) at 50° C. ([3]; Toluene, 50 volumes): x | Solubility (volumes) (✓ YES; x NO) at 50° C. ([3]; Water, 10 volumes): x | Solubility (volumes) (✓ YES; x NO) at 50° C. ([3]; Water, 25 volumes): x | Solubility (volumes) (✓ YES; x NO) at 50° C. ([3]; Water, 50 volumes): x | relative stability versus Form II (competitive slurry) [4]: more stable | relative stability versus Form IV (competitive slurry) [5]: more stable
SMILES: NC(=O)c1ccn(-c2cnc(NC[C@]3(c4ncccc4F)C[C@H](F)C3)nc2)c1 [Form I, 1-(2-((((trans)-3-fluoro-1-(3-fluoropyridin-2-yl)cyclobutyl)methyl)amino)pyrimidin-5-yl)-1H-pyrrole-3-carboxamide]
